From article PMC9403976, “Elucidating the path to Plasmodium prolyl-tRNA synthetase inhibitors that overcome halofuginone resistance” (Nature Communications, 2022)
Where “and” joins values, the source holds several entries; their conditions need not be identical. Equal values may be shown once. Read-outs that look alike come from different tables or passages of the source.

Legend:
[1] = system: P. falciparum Dd2-2D4 NCP26 selections S1-3; assay: ABS growth assay on bulk populations and clones from NCP26 resistance selections S1-3; assay type: cell-based, Plasmodium falciparum; conditions: for EC50: Plasmodium falciparum; for Fold-change Resistance: independent experiments
Method: In short, P. falciparum erythrocytic-stage parasites at 1% parasitemia and 1% hematocrit in RPMI + 0.5% Albumax were seeded at 40 μL/well in 384-well plates with test compounds in triplicate, dose-response format with 10 μM dihydroartemisinin as a kill-control and blank (no compound) wells as a growth-control. […] After 72 h, growth was quantified by measuring fluorescence (Molecular Devices SpectraMax iD5) following SYBR Green 1 staining. Data were analyzed in Excel and plotted in PRISM (V. 8.4.3–9.1.0, GraphPad).
This cycle was repeated for ~50 generations (~100 days), corresponding to 5–6 cycles of drug pressure.
Clonal parasites were isolated from each selection flask by limiting dilution of ring stage parasites in 96-well plates to an average of 0.8 and 0.2 parasites per well.

P. falciparum Dd2-2D4 = assay: P. falciparum asexual blood stage (ABS) growth assay, SYBR Green, 72 h, wild-type parasites; assay type: cell-based, Plasmodium falciparum; conditions: Plasmodium falciparum
[2] = system: halofuginone-induced P. falciparum (elevated proline homeostasis); assay: P. falciparum ABS growth assay, SYBR Green, 72 h, halofuginone-induced parasites; assay type: cell-based, Plasmodium falciparum; conditions: Halofuginone-Induced (HFG-Induced)
Outline: (§1)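 Dd2-derived P. falciparum lines (HFGR-I, halofuginone-induced) at 1% parasitemia and 1% hematocrit in RPMI + 0.5% Albumax were exposed to compounds in triplicate dose-response for 72 h. Growth was read as SYBR Green 1 fluorescence, with 10 μM dihydroartemisinin as kill control and compound-free wells as growth control.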

[3] = system: HFGR-I P. falciparum (elevated proline homeostasis and PfcProRS^L482H); assay: P. falciparum ABS growth assay, SYBR Green, 72 h, HFGR-I parasites; assay type: cell-based, Plasmodium falciparum; conditions: HFGR-I
Outline: as §1

PfcProRS = target: T1, PfcProRS (Plasmodium falciparum, UniProt Q8I5R7); assay type: binding; conditions: for Normalized response, dose-response replicates (SI Fig 14): replicates 1-3
T1 construct: made in house; host or cells: E. coli SoluBL-21
T1 sequence (Q8I5R7 249-746): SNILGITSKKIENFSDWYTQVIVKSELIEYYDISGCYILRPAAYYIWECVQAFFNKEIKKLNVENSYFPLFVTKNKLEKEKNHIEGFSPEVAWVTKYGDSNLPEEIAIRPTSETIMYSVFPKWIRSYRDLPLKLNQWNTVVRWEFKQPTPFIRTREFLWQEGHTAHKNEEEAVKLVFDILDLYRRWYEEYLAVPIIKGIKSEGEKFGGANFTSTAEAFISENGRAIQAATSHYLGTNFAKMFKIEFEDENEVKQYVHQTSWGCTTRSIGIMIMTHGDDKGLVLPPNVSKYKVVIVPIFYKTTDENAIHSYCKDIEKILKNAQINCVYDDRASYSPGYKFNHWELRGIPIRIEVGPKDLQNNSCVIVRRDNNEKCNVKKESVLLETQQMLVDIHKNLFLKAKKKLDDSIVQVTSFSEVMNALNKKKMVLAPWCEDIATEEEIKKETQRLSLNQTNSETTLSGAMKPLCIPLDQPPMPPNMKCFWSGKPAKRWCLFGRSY

HsProRS = HsProRS (Homo sapiens, UniProt P07814); assay: TR-FRET ligand displacement assay with tracer MAT379 (CoraFluor-1-Halo and anti-His6 antibody formats); assay type: binding; parameters: made in house; host or cells: E. coli SoluBL-21; conditions: for Kd: 250 nM MAT379; for normalized TR-FRET signal (dose-response replicates): SI Fig 17a
Chain of HsProRS (P07814 996-1512): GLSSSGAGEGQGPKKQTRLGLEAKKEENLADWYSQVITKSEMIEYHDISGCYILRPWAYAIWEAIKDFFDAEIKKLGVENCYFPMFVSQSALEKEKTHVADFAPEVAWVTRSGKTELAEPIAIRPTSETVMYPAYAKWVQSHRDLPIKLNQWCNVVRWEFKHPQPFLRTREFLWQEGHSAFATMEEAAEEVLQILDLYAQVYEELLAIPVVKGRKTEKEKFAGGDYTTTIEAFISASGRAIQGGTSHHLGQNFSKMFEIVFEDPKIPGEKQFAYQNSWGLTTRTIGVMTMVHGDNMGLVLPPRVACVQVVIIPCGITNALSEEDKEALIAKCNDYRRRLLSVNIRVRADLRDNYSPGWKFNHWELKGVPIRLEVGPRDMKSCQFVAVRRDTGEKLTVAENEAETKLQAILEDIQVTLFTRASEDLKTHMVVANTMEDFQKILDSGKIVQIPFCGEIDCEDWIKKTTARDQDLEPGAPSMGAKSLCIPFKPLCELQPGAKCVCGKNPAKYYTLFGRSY

[4] = Log[inhibitor] (M) -5.000, series r16-r27

C[C@@H]1C[C@H](C)C[C@H](C)[C@@H](O)CC(=O)O[C@H]([C@@H]2CCC[C@H]2C(=O)O)C/C=C/C=C(/C#N)[C@H](O)[C@@H](C)C1 [Borrelidin, borrelidin, reference compound]
EC50 ([1]; DD2, cell line S1 - Clone A8, read-out: EC50 [nM] mean): 1.5 nM | EC50 ([1]; DD2, cell line S1 - bulk population, read-out: EC50 [nM] mean): 1.45 nM | EC50 ([1]; DD2, cell line S2 - Clone A3, read-out: EC50 [nM] mean): 1.6 nM | EC50 ([1]; DD2, cell line S2 - Clone B9, read-out: EC50 [nM] mean): 4.67 nM | EC50 ([1]; DD2, cell line S2 - Clone C5, read-out: EC50 [nM] mean): 1.51 nM | EC50 ([1]; DD2, cell line S2 - bulk population, read-out: EC50 [nM] mean): 1.3 nM | EC50 ([1]; DD2, cell line S3 - Clone B3, read-out: EC50 [nM] mean): 1.34 nM | EC50 ([1]; DD2, cell line S3 - Clone B7, read-out: EC50 [nM] mean): 1.38 nM | EC50 ([1]; DD2, cell line S3 - bulk population, read-out: EC50 [nM] mean): 1.3 nM | EC50 ([1]; DD2, read-out: EC50 [nM] mean, cell line S3 - Clone B2): 5.92 nM | Fold-change Resistance ([1]; S2 - Clone B9): 1.46 and 0.77 | Fold-change Resistance ([1]; S3 - Clone B2): 1.02 and 1.96 | EC50 (P. falciparum Dd2-2D4; cell line Dd2-2D4 (parent), read-out: EC50 [nM] mean): 6.05 nM

CC(C)(C)OC(=O)N1CCC[C@H]1C(=O)NCC1CCN(C(=O)Nc2nccnc2C(=O)NC2Cc3ccccc3C2)CC1 [compound 32]
parasite growth, dose-response point [2, 4]: 56 and 59 and 61 | parasite growth, dose-response point ([2]; Log[inhibitor] (M) -5.408): 91 and 93 | parasite growth, dose-response point ([2]; Log[inhibitor] (M) -5.816): 97 and 101 | parasite growth, dose-response point ([2]; Log[inhibitor] (M) -6.222): 101 and 104 | parasite growth, dose-response point ([2]; Log[inhibitor] (M) -6.638): 105 and 99 and 109 | parasite growth, dose-response point ([2]; Log[inhibitor] (M) -7.046): 102 and 106 | parasite growth, dose-response point ([2]; Log[inhibitor] (M) -7.450): 96 and 98 and 97 | parasite growth, dose-response point ([2]; Log[inhibitor] (M) -7.854): 92 and 97 and 99 | parasite growth, dose-response point ([2]; Log[inhibitor] (M) -8.260): 102 and 96 and 100 | parasite growth, dose-response point ([2]; Log[inhibitor] (M) -8.699): 96 and 106 and 94 | parasite growth, dose-response point ([2]; Log[inhibitor] (M) -9.000): 100 and 96 and 98 | parasite growth, dose-response point ([2]; Log[inhibitor] (M) -9.488): 96 and 100 and 101 | EC50 (P. falciparum Dd2-2D4; DD2, SI Fig 16b, values on -log scale, read-out: ABS - Dd2-2D4 (converted)): 63.2 nM | parasite growth, dose-response point [3, 4]: 65 and 64 and 69 | parasite growth, dose-response point ([3]; Log[inhibitor] (M) -5.408): 103 and 102 and 96 | parasite growth, dose-response point ([3]; Log[inhibitor] (M) -5.816): 108 (2×) and 102 | parasite growth, dose-response point ([3]; Log[inhibitor] (M) -6.222): 105 | parasite growth, dose-response point ([3]; Log[inhibitor] (M) -6.638): 107 and 104 and 103 | parasite growth, dose-response point ([3]; Log[inhibitor] (M) -7.046): 101 and 105 and 99 | parasite growth, dose-response point ([3]; Log[inhibitor] (M) -7.450): 87 and 91 and 96 | parasite growth, dose-response point ([3]; Log[inhibitor] (M) -7.854): 87 and 93 and 83 | parasite growth, dose-response point ([3]; Log[inhibitor] (M) -8.260): 88 and 90 and 94 | parasite growth, dose-response point ([3]; Log[inhibitor] (M) -8.699): 93 and 91 | parasite growth, dose-response point ([3]; Log[inhibitor] (M) -9.000): 91 and 92 and 87 | parasite growth, dose-response point ([3]; Log[inhibitor] (M) -9.488): 92 and 82 | Normalized response, dose-response replicates (SI Fig 14) (PfcProRS; Log[inhibitor] (M) -5.000): 8.11E-02 and -2.06E-02 and -4.64E-02 | Normalized response, dose-response replicates (SI Fig 14) (PfcProRS; Log[inhibitor] (M) -5.301): 3.54E-04 and -5.93E-02 and 6.94E-02 | Normalized response, dose-response replicates (SI Fig 14) (PfcProRS; Log[inhibitor] (M) -5.601): 6.67E-02 and 8.89E-02 and 6.64E-02 | Normalized response, dose-response replicates (SI Fig 14) (PfcProRS; Log[inhibitor] (M) -5.904): 2.31E-01 and 3.17E-01 and 2.64E-01 | Normalized response, dose-response replicates (SI Fig 14) (PfcProRS; Log[inhibitor] (M) -6.208): 3.63E-01 and 4.57E-01 and 4.26E-01 | Normalized response, dose-response replicates (SI Fig 14) (PfcProRS; Log[inhibitor] (M) -6.509): 7.41E-01 and 6.71E-01 and 7.68E-01 | Normalized response, dose-response replicates (SI Fig 14) (PfcProRS; Log[inhibitor] (M) -6.796): 9.02E-01 and 7.89E-01 and 8.70E-01 | Normalized response, dose-response replicates (SI Fig 14) (PfcProRS; Log[inhibitor] (M) -7.108): 8.53E-01 and 8.96E-01 and 8.71E-01 | Normalized response, dose-response replicates (SI Fig 14) (PfcProRS; Log[inhibitor] (M) -7.409): 8.49E-01 and 8.87E-01 and 9.83E-01 | Normalized response, dose-response replicates (SI Fig 14) (PfcProRS; Log[inhibitor] (M) -7.710): 9.08E-01 and 9.29E-01 and 9.85E-01 | Normalized response, dose-response replicates (SI Fig 14) (PfcProRS; Log[inhibitor] (M) -8.000): 9.86E-01 and 8.66E-01 and 9.79E-01 | Normalized response, dose-response replicates (SI Fig 14) (PfcProRS; Log[inhibitor] (M) -8.301): 1.11E+00 and 8.88E-01 and 9.05E-01 | Normalized response, dose-response replicates (SI Fig 14) (PfcProRS; Log[inhibitor] (M) -8.602): 9.30E-01 and 8.25E-01 and 1.02E+00 | Normalized response, dose-response replicates (SI Fig 14) (PfcProRS; Log[inhibitor] (M) -9.000): 8.77E-01 and 8.28E-01 and 9.46E-01 | Normalized response, dose-response replicates (SI Fig 14) (PfcProRS; Log[inhibitor] (M) -9.301): 8.47E-01 and 9.35E-01 and 9.98E-01 | PfcProRS -- best Kd (PfcProRS; SI Fig 16a, values on -log scale): 8.272 | Kd (HsProRS; HsProRS (KD [nM]) + proline, 100 μM proline): 270 nM | Kd (HsProRS; HsProRS (KD [nM]) −, absence of substrates): 72.1 nM | normalised signal, dose-response point (Fig 4d) (HsProRS; Log[inhibitor] (M) -5.000, series of 32): 2.12E-01 and 2.00E-01 and 2.05E-01 | normalised signal, dose-response point (Fig 4d) (HsProRS; Log[inhibitor] (M) -5.260): 3.41E-01 and 3.06E-01 and 3.25E-01 | normalised signal, dose-response point (Fig 4d) (HsProRS; Log[inhibitor] (M) -5.520): 5.51E-01 and 5.09E-01 and 5.11E-01 | normalised signal, dose-response point (Fig 4d) (HsProRS; Log[inhibitor] (M) -5.770): 5.87E-01 and 6.67E-01 and 6.60E-01 | normalised signal, dose-response point (Fig 4d) (HsProRS; Log[inhibitor] (M) -6.020): 8.17E-01 and 7.53E-01 and 7.81E-01 | normalised signal, dose-response point (Fig 4d) (HsProRS; Log[inhibitor] (M) -6.280): 8.69E-01 and 9.20E-01 and 9.33E-01 | normalised signal, dose-response point (Fig 4d) (HsProRS; Log[inhibitor] (M) -6.530): 9.20E-01 and 9.88E-01 and 9.42E-01 | normalised signal, dose-response point (Fig 4d) (HsProRS; Log[inhibitor] (M) -6.800): 9.40E-01 and 8.89E-01 | normalised signal, dose-response point (Fig 4d) (HsProRS; Log[inhibitor] (M) -7.060): 9.33E-01 and 9.82E-01 and 1.04E+00 | normalised signal, dose-response point (Fig 4d) (HsProRS; Log[inhibitor] (M) -7.320): 9.28E-01 and 1.05E+00 and 1.04E+00 | normalised signal, dose-response point (Fig 4d) (HsProRS; Log[inhibitor] (M) -7.550): 9.75E-01 and 9.78E-01 and 9.48E-01 | normalised signal, dose-response point (Fig 4d) (HsProRS; Log[inhibitor] (M) -7.800): 9.53E-01 and 9.20E-01 and 9.82E-01 | normalised signal, dose-response point (Fig 4d) (HsProRS; Log[inhibitor] (M) -8.100): 1.05E+00 and 1.02E+00 and 1.07E+00 | normalised signal, dose-response point (Fig 4d) (HsProRS; Log[inhibitor] (M) -8.400): 1.08E+00 and 1.05E+00 and 1.02E+00 | normalised signal, dose-response point (Fig 4d) (HsProRS; Log[inhibitor] (M) -8.590): 1.09E+00 and 1.06E+00 and 1.01E+00 | normalized TR-FRET signal (dose-response replicates) (HsProRS; Log[inhibitor] (M) -5.000): 2.39E-01 and 2.20E-01 and 1.87E-01 | normalized TR-FRET signal (dose-response replicates) (HsProRS; Log[inhibitor] (M) -5.301): 3.62E-01 and 3.47E-01 and 3.37E-01 | normalized TR-FRET signal (dose-response replicates) (HsProRS; Log[inhibitor] (M) -5.601): 5.14E-01 and 4.86E-01 and 5.28E-01 | normalized TR-FRET signal (dose-response replicates) (HsProRS; Log[inhibitor] (M) -5.904): 6.65E-01 and 6.61E-01 and 6.44E-01 | normalized TR-FRET signal (dose-response replicates) (HsProRS; Log[inhibitor] (M) -6.208): 7.43E-01 and 7.50E-01 and 7.76E-01 | normalized TR-FRET signal (dose-response replicates) (HsProRS; Log[inhibitor] (M) -6.509): 8.47E-01 and 8.09E-01 and 8.87E-01 | normalized TR-FRET signal (dose-response replicates) (HsProRS; Log[inhibitor] (M) -6.796): 8.64E-01 and 8.39E-01 and 8.67E-01 | normalized TR-FRET signal (dose-response replicates) (HsProRS; Log[inhibitor] (M) -7.108): 8.86E-01 and 8.93E-01 and 9.29E-01 | normalized TR-FRET signal (dose-response replicates) (HsProRS; Log[inhibitor] (M) -7.409): 9.16E-01 and 8.51E-01 and 8.90E-01 | normalized TR-FRET signal (dose-response replicates) (HsProRS; Log[inhibitor] (M) -7.710): 8.73E-01 and 8.93E-01 and 9.04E-01 | normalized TR-FRET signal (dose-response replicates) (HsProRS; Log[inhibitor] (M) -8.000): 8.95E-01 and 8.48E-01 and 9.51E-01 | normalized TR-FRET signal (dose-response replicates) (HsProRS; Log[inhibitor] (M) -8.301): 9.44E-01 and 8.99E-01 and 9.43E-01 | normalized TR-FRET signal (dose-response replicates) (HsProRS; Log[inhibitor] (M) -8.602): 9.47E-01 and 8.94E-01 and 9.08E-01 | normalized TR-FRET signal (dose-response replicates) (HsProRS; Log[inhibitor] (M) -9.000): 8.96E-01 and 9.17E-01 and 8.59E-01 | normalized TR-FRET signal (dose-response replicates) (HsProRS; Log[inhibitor] (M) -9.301): 8.96E-01 and 9.24E-01 and 9.14E-01
